From patent US10800782B2, “Inhibitors of cellular metabolic processes” (Agios Pharmaceuticals, Inc., priority 2016, dated 2020)

The molecules below were run against T1, MAT2A (Homo sapiens, UniProt P31153) (assay: MAT2A biochemical assay (colorimetric inorganic phosphate detection, PiColorLock)). Settings: recombinant His6-tagged MAT2A 1 μg/ml; 60 minutes preincubation at 25° C.; L-Met 80 μM, ATP 100 μM; 60 minutes reaction; read at 623 nm; read-out: MAT2A Inhibition Score.
T1 construct: His6; made in house; host or cells: SF9 insect cells
In short: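 His6-tagged human MAT2A (SF9-expressed, 1 μg/ml) converting L-Met and ATP to SAM in Tris pH 8.0, 50 mM KCl, 15 mM MgCl2, 300 uM EDTA, 0.005% BSA; 60 min at room temperature. Released phosphate detected colorimetrically with malachite green phosphomolybdate. Ten-point, three-fold compound dilution series.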

T1 sequence (P31153 whole entry): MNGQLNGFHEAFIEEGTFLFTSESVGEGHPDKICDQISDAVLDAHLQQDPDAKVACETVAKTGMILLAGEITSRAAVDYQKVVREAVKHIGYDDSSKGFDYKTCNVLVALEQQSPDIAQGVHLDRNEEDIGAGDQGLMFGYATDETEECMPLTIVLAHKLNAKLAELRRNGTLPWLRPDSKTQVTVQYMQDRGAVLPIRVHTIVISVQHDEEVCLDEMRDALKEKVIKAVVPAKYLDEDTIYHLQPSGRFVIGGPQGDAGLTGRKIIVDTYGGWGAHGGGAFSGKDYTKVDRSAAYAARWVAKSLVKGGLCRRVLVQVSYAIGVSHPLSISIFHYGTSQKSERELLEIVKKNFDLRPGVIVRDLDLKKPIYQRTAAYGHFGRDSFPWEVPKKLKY

IC50 | Structure (SMILES)
< 100 nM | COc1ccc(-c2c(Nc3ncncn3)[nH]c3c(-c4ccccc4)c(-c4ccccc4)nn3c2=O)cc1 [Compound 132, 5-((1,3,5-triazin-2-yl)amino)-6-(4-methoxyphenyl)-2,3-diphenylpyrazolo[1,5-a]pyrimidin-7(4H)-one]
< 100 nM | Cc1[nH]c2c(-c3ccccc3)c(-c3ccc(O)cc3)nn2c(=O)c1-c1ccc2ncccc2c1 [Compound 242, 2-(4-hydroxyphenyl)-5-methyl-3-phenyl-6-(quinolin-6-yl)pyrazolo[1,5-a]pyrimidin-7(4H)-one]
1000 to 10000 nM | NCCn1cc(-c2ccc3ncccc3c2)c(=O)n2nc(-c3ccccc3)c(-c3ccccc3)c12 [Compound 353, 4-(2-aminoethyl)-2,3-diphenyl-6-(quinolin-6-yl)pyrazolo[1,5-a]pyrimidin-7(4H)-one]
< 100 nM | COc1ccc(-c2c(Nc3ccc(F)cn3)[nH]c3c(-c4ccccc4)c(-c4ccccc4)nn3c2=O)cc1 [Compound 105, 5-((5-fluoropyridin-2-yl)amino)-6-(4-methoxyphenyl)-2,3-diphenylpyrazolo[1,5-a]pyrimidin-7(4H)-one]
1000 to 10000 nM | O=C(Nc1[nH]c2c(-c3ccccc3)c(-c3ccccc3)nn2c(=O)c1-c1ccc2ncccc2c1)C1CC1 [Compound 326, N-(7-oxo-2,3-diphenyl-6-(quinolin-6-yl)-4,7-dihydropyrazolo[1,5-a]pyrimidin-5-yl)cyclopropanecarboxamide]
100 to 1000 nM | Cc1[nH]c2c(N3CCC(F)(F)C3)c(-c3ccccc3)nn2c(=O)c1-c1ccc2nccn2c1 [Compound 317, 3-(3,3-difluoropyrrolidin-1-yl)-6-(imidazo[1,2-a]pyridin-6-yl)-5-methyl-2-phenylpyrazolo[1,5-a]pyrimidin-7(4H)-one]
1000 to 10000 nM | CC(=O)Nc1ccc(-c2c(C)[nH]c3c(N4CCCCC4)c(-c4ccccc4)nn3c2=O)cc1 [Compound 308, N-(4-(5-methyl-7-oxo-2-phenyl-3-(piperidin-1-yl)-4,7-dihydropyrazolo[1,5-a]pyrimidin-6-yl)phenyl)acetamide]
< 100 nM | COc1ccc(-c2c(Nc3cnoc3)[nH]c3c(-c4ccccc4)c(-c4ccccc4)nn3c2=O)cc1 [Compound 139, 5-(isoxazol-4-ylamino)-6-(4-methoxyphenyl)-2,3-diphenylpyrazolo[1,5-a]pyrimidin-7(4H)-one]
< 100 nM | COc1ccc(-c2c(Nc3ccn[nH]3)[nH]c3c(C4=CCCCC4)c(-c4ccccc4)nn3c2=O)cc1 [Compound 189, 5-((1H-pyrazol-5-yl)amino)-3-(cyclohex-1-en-1-yl)-6-(4-methoxyphenyl)-2-phenyl pyrazolo[1,5-a]pyrimidin-7(4H)-one]
100 to 1000 nM | Cc1[nH]c2c(N3CCCCC3)c(-c3ccccc3)nn2c(=O)c1N1CCOCC1 [Compound 302, 5-methyl-6-morpholino-2-phenyl-3-(piperidin-1-yl)pyrazolo[1,5-a]pyrimidin-7(4H)-one]
< 100 nM | Cn1c(CO)c(-c2ccc3ncccc3c2)c(=O)n2nc(-c3ccccc3)c(-c3ccccc3)c12 [Compound 281, 5-(hydroxymethyl)-4-methyl-2,3-diphenyl-6-(quinolin-6-yl)pyrazolo[1,5-a]pyrimidin-7(4H)-one]
< 100 nM | COc1ccc(-c2c(Nc3cnccn3)[nH]c3c(C4=CCCCC4)c(-c4ccccc4)nn3c2=O)cc1 [Compound 158, 3-cyclohexenyl-6-(4-methoxyphenyl)-2-phenyl-5-(pyrazin-2-ylamino) pyrazolo[1,5-a]pyrimidin-7(4H)-one]
< 100 nM | Cc1[nH]c2c(-c3ccccc3)c(-c3ccccc3)nn2c(=O)c1-c1ccc2nc(C(=O)O)ccc2c1 [Compound 246, 6-(5-methyl-7-oxo-2,3-diphenyl-4,7-dihydropyrazolo[1,5-a]pyrimidin-6-yl) quinoline-2-carboxylic Acid]
< 100 nM | O=c1c(-c2ccc3c(c2)OCCO3)c(CO)[nH]c2c(C3=CCCCC3)c(-c3ccccc3)nn12 [Compound 225, 3-(cyclohex-1-en-1-yl)-6-(2,3-dihydrobenzo[b][1,4]dioxin-6-yl)-5-(hydroxymethyl)-2-phenylpyrazolo[1,5-a]pyrimidin-7(4H)-one]
< 100 nM | O=C(NCc1[nH]c2c(-c3ccccc3)c(-c3ccccc3)nn2c(=O)c1-c1ccc2ncccc2c1)C(F)(F)F [Compound 263, 2,2,2-trifluoro-N-((7-oxo-2,3-diphenyl-6-(quinolin-6-yl)-4,7-dihydropyrazolo[1,5-a]pyrimidin-5-yl)methyl)acetamide]
100 to 1000 nM | O=c1c(-c2ccc3ncccc3c2)c(CO)[nH]c2c(-c3ccccc3)c(-c3ccccc3)nn12 [Compound 319, 5-(hydroxymethyl)-2,3-diphenyl-6-(quinolin-6-yl)pyrazolo[1,5-a]pyrimidin-7(4H)-one]
< 100 nM | NCc1[nH]c2c(C3=CCCCC3)c(-c3ccccc3)nn2c(=O)c1-c1ccc(O)cc1 [Compound 241, 5-(aminomethyl)-3-(cyclohex-1-en-1-yl)-6-(4-hydroxyphenyl)-2-phenylpyrazolo[1,5-a]pyrimidin-7(4H)-one]
< 100 nM | COc1ccc(-c2c(Nc3cnncn3)[nH]c3c(-c4ccccc4)c(-c4ccccc4)nn3c2=O)cc1 [Compound 133, 5-((1,2,4-triazin-5-yl)amino)-6-(4-methoxyphenyl)-2,3-diphenylpyrazolo[1,5-a]pyrimidin-7(4H)-one]
< 100 nM | NCc1[nH]c2c(-c3ccccc3)c(-c3ccccc3)nn2c(=O)c1-c1ccc(O)cc1 [Compound 236, 5-(aminomethyl)-6-(4-hydroxyphenyl)-2,3-diphenylpyrazolo[1,5-a]pyrimidin-7(4H)-one]
1000 to 10000 nM | O=c1c(-c2ccc3ncccc3c2)cn(CCn2cnnn2)c2c(-c3ccccc3)c(-c3ccccc3)nn12 [Compound 352, 4-(2-(1H-tetrazol-1-yl)ethyl)-2,3-diphenyl-6-(quinolin-6-yl)pyrazolo[1,5-a]pyrimidin-7(4H)-one]
< 100 nM | O=c1c(-c2ccc3ncccc3c2)c(Nc2ccon2)[nH]c2c(-c3ccccc3)c(-c3ccccc3)nn12 [Compound 170, 5-(isoxazol-3-ylamino)-2,3-diphenyl-6-(quinolin-6-yl)pyrazolo[1,5-a]pyrimidin-7(4H)-one]
< 100 nM | Cc1[nH]c2c(-c3ccccc3)c(-c3ccccc3)nn2c(=O)c1-c1ccc(O)cc1 [Compound 237, 6-(4-hydroxyphenyl)-5-methyl-2,3-diphenylpyrazolo[1,5-a]pyrimidin-7(4H)-one]
< 100 nM | COc1ccc(-c2c(Nc3cncnc3)[nH]c3c(-c4ccccc4)c(-c4ccccc4)nn3c2=O)cc1 [Compound 120, 6-(4-methoxyphenyl)-2,3-diphenyl-5-(pyrimidin-5-ylamino)pyrazolo[1,5-a]pyrimidin-7(4H)-one]
< 100 nM | Cc1[nH]c2c(-c3ccccc3)c(-c3ccccc3)nn2c(=O)c1-c1ccc(O)c(Cl)c1 [Compound 239, 6-(3-chloro-4-hydroxyphenyl)-5-methyl-2,3-diphenylpyrazolo[1,5-a]pyrimidin-7(4H)-one]

Structure (SMILES) | IC50
COc1ccc(-c2c(CN)[nH]c3c(-c4ccccc4)c(-c4ccccc4)nn3c2=O)cc1 [Compound 222, 5-(aminomethyl)-6-(4-methoxyphenyl)-2,3-diphenylpyrazolo[1,5-a]pyrimidin-7(4H)-one] | < 100 nM
